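Each compound was tested at five concentrations against cells in 96-well plates for 48 hours. Here, GI50 denotes the concentration required for 50% inhibition of growth. TGI: concentration producing complete growth inhibition.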 Where a SMILES comes first, the peptide text is derived from it. [ ]: non-standard residue; d: D form. The star is where a group is joined. Tyr(3-Br) = N[C@@H](Cc1ccc(O)c(Br)c1)C(=O)O; Boc = CC(C)(C)OC(=O)*

Holding throughout (assay): NCI anticancer screen, dose series, 48 h
The subject of experiment [1] is SK-OV-3 ovarian.
The subject of experiment [2] is EKVX NSCLC.
Experiment [3] relates to SNB-19 CNS.
For experiment [4], the system named is NCI-H460 lung.
Experiment [5] has as its system PC-3 prostate.
Experiment [6] concerns K-562 leukemia.
Experiment [7] has as its system M14 melanoma.
Experiment [8] relates to RXF 393 renal.
The subject of experiment [9] is MDA-MB-435.

For the compound `Cn1c(-c2cccs2)cc(-c2cccs2)c1-c1ccco1`, the TGI in [1], in [2], in experiment [3], in experiment [4], in experiment [5] and in experiment [6] was above 100 µM each time. The TGI in [7] was above 84.5 µM; in [8] it was above 82.7 µM.
Take `CCOC(=O)c1sc(N/N=C2\NC(=O)/C(=C/c3ccc([N+](=O)[O-])cc3)S2)nc1C`: the TGI in experiment [1] is above 100 µM; in [2], 43.4 µM; in experiment [3] it was above 100 µM; in experiment [4] it was 48.2 µM; in experiment [5], 91.4 µM; in experiment [7], above 100 µM. For the same compound, the TGI in [8] is 84 µM; in [9], 77.3 µM.
In the case of `O=C1NC(N2CCCCC2)=N/C1=C\c1cccs1`, the TGI in [1], in [2], in experiment [3], in [5], in [7] and in [8] was above 100 µM throughout. The compound further gave a TGI in [9] above 100 µM.
For `COC(=O)[C@H](Cc1ccc(O)c(Br)c1)NC(=O)[C@H](Cc1ccc(O)cc1)NC(=O)OC(C)(C)C` (Boc-Tyr-[Tyr(3-Br)]-OMe), the TGI in experiment [1] is above 100 µM; in [2], above 100 µM; in experiment [3] it was above 100 µM; in experiment [4], 37.7 µM; in experiment [5], above 100 µM; in experiment [6] it was above 100 µM. In addition, the TGI in experiment [7] was above 100 µM; in experiment [9] it was 53.5 µM.
For the compound `O=C(Cc1csc(N=Nc2c(O)[nH]c3ccccc23)n1)Nc1ccccc1`, the TGI in experiment [1] was above 100 µM; in [2] it was 52.8 µM; in experiment [3], 85.4 µM; in experiment [4] it was above 100 µM; in experiment [7], above 100 µM; in [8], above 100 µM. For the same compound, in experiment [9], the TGI is above 100 µM.
In the case of `CCCCc1ccc(Nc2nc(=S)c3[nH]cnc3[nH]2)cc1`, the TGI was 56.8 µM in experiment [3]; above 100 µM in experiment [4]; above 100 µM in experiment [5]; above 100 µM in [6]; above 100 µM in experiment [7]; 48.1 µM in [9].
As to `CCOC(=O)Cc1csc2[n+]1C(=O)/C(=C/c1cccc(OC)c1O)S2`, the TGI in experiment [1], in experiment [2], in experiment [3], in experiment [4], in [5] and in [7] was above 100 µM each time. In [9], this compound gave a TGI of 50.5 µM.
In the case of `Cc1ccc2c(sc(-c3ccc4c(c3)sc(-c3ccc5c(c3)sc(-c3ccc(N(C)C)cc3)[n+]5C)[n+]4C)[n+]2C)c1S(=O)(=O)O` (tested in a mixture with another compound), the TGI in [1], in [2], in [3], in experiment [5], in [6] and in experiment [7] was above 100 µM throughout. The compound also had a TGI in [9] above 100 µM.
`COc1cc(C(=O)O[C@@H]2[C@@H](OC(=O)c3cc(OC)c(OC)c(OC)c3)[C@@H](OC)O[C@@H]3CO[C@@H](c4ccccc4)O[C@@H]23)cc(OC)c1OC`: the TGI in experiment [1], in experiment [2], in experiment [3], in [4], in experiment [5] and in experiment [6] was above 100 µM in each case. For the same compound, the TGI in [7] and in experiment [9] was above 100 µM in each case.
Turning to `Cc1c2c(n(CCc3ccccc3)c1C)N(C)N=C(C#N)S2(=O)=O`, the TGI in experiment [1], in experiment [2], in experiment [3], in experiment [4], in [5] and in experiment [7] was above 100 µM in each case. Further, the TGI in experiment [8] and in experiment [9] was above 100 µM throughout.
For `CC1(C)CC23CC(C)(C)c4cccc(c42)OCc2ccc4ccc5ccc(nc5c4n2)COc2cccc1c23`, the TGI in [1] is above 50 µM; in [2], above 50 µM; in experiment [3], above 5 µM; in experiment [4], above 50 µM; in [5], above 50 µM; in [6] it was above 50 µM. Besides, the TGI in experiment [7] and in experiment [9] was above 50 µM each time.
Consider `CCOC(=O)c1nc2ccccc2nc1Nc1ccc(OC)c(OC)c1`, for which the TGI in [1], in experiment [2], in experiment [3], in [4], in [6] and in experiment [7] was above 100 µM throughout. Also, the TGI in experiment [9] is above 100 µM.
Consider `C=C(C)CC1(O)C(=O)C(OCC)=C1OCC` (stereo unspecified), for which the TGI in [1], in experiment [2], in experiment [3], in [4], in experiment [5] and in experiment [7] was above 100 µM throughout. In addition, in [9], the TGI was above 100 µM.
`OC[C@]1(n2nc3ccccc3n2)OC[C@@H]1c1ccccc1`: the TGI in [1], in experiment [2], in [3], in experiment [4], in experiment [5] and in [6] was above 100 µM in each case. Also, the TGI in experiment [7] and in experiment [9] was above 100 µM throughout.
For the compound `C/C=C\C(CC(=O)NCCC1CN(S(=O)(=O)C(F)(F)F)c2ccccc21)CC(=O)OC` (stereo unspecified), the TGI in experiment [1], in experiment [2], in experiment [3], in [4], in experiment [5] and in experiment [6] was above 100 µM each time. For the same compound, the TGI in experiment [7] and in [8] was above 100 µM in each case.
With `COc1cc(/C=C/c2cc(/C=C/c3ccc(O)c(OC)c3)nc(N)n2)ccc1O`, the GI50 in experiment [1] is 2.6 µM; in experiment [2] it was 2.22 µM; in experiment [3], 1.81 µM; in experiment [4], 2.05 µM; in experiment [5], 1.48 µM; in [6], 2.3 µM. Further, the TGI amounted to 8.23 µM in [1]; 6.83 µM in experiment [2]; 7.95 µM in experiment [3]; 5.2 µM in [4]; 5.57 µM in [5]; 8.31 µM in experiment [6].
For the compound `O=C(NNC(c1ccccc1)C(F)(F)F)c1ccncc1` (stereo unspecified), the TGI in experiment [2], in experiment [3], in experiment [4], in [5], in [6] and in [7] was above 100 µM throughout. Besides, the TGI in [9] is above 100 µM.
Take `CCN(CC)C(=S)SS(=O)(=O)c1ccc(Cl)cc1`: the TGI in experiment [1] is above 100 µM; in experiment [2], above 100 µM; in [3], above 100 µM; in [4], above 100 µM; in experiment [6], 63.3 µM; in experiment [7], 31 µM. The TGI stood at 39.2 µM in experiment [8] and 48.5 µM in experiment [9].
With `COc1ccc2c(c1)/C(=C\c1c(C)nc3sc(C)cn13)C(=O)N2`, the TGI in experiment [1] is 23 µM; in experiment [2], 44.2 µM; in [3], above 100 µM; in experiment [4], 16.5 µM; in [5] it was above 100 µM; in [6] it was above 100 µM. In addition, the values for the TGI in experiment [7] and in [9] were above 100 µM and 0.458 µM, respectively.
`COc1cc(/C=C2/SC(c3ccccc3)N(c3ccccc3)C2=O)cc(OC)c1OC` (stereo unspecified): the TGI in experiment [1], in [2], in experiment [3], in experiment [4], in [6] and in experiment [7] was above 100 µM throughout. Also, the TGI in experiment [8] and in experiment [9] was above 100 µM in each case.
As to `COP(=O)(Cc1ccccc1)Cc1ccccc1`, the TGI in experiment [1], in experiment [2], in experiment [4], in [5], in experiment [6] and in experiment [7] was above 100 µM throughout. Moreover, in experiment [8], the TGI was above 100 µM.
Regarding `CCOC(=O)c1c(C)cc(=O)n2c1[nH]c1ccccc12`, the TGI in experiment [1], in [2], in experiment [3], in experiment [4], in [5] and in experiment [6] was above 100 µM throughout. Further, the TGI in [7] and in [8] was above 100 µM each time.
For `CN1CCCCC(C#N)(c2ccccc2)CC1` (stereo unspecified), the TGI in [1], in experiment [2], in experiment [3], in experiment [4], in experiment [5] and in [6] was above 100 µM in each case. The TGI in [7] and in experiment [8] was above 100 µM each time.
On to `Nc1nc(Cl)cc(OCC2(CO)CC(OCc3ccccc3)C2)n1` (stereo unspecified), for which the GI50 was 61.2 µM in experiment [1]; 44.6 µM in experiment [2]; 51.6 µM in experiment [3]; 66.3 µM in experiment [4]; 36.5 µM in experiment [6]; 95 µM in [7]. In addition, the results for the GI50 in experiment [8] and in experiment [9] were 48.6 µM and 69.4 µM, respectively.

Values taken from PubChem BioAssay (NCI).
